In patent US20260347403A1, “FUNGICIDAL COMPOUND” (priority 2022, published 2026):

System: Cercospora arachidicola
Assay: Liquid culture 96-well mixture assay with malonomicin, Cercospora arachidicola, 5-6 days
Assay type: cell-based
Settings: line H malonomicin alone, concentrations in Table 8
Description: A stock solution for compound of Formula I(a) was produced in DMSO (max. 10 mg/ml). Malonomicin was produced according to Law et al, 2018 (Nature Catalys is |VOL 1|DECEMBER 2018|977-984). A stock solution of malonomicin was produced in water plus 0.025% Tween® 20.
Assays to test efficacy of mixtures of the lipopeptide compound of Formula I(a) in combination with malonomicin on the control of fungal pathogens in a liquid culture assay were designed for a 96well plate as outlined in table 1:
The 96 well plate design allows to compare disease control of the mixture with disease control of the respective single compound at the same rate.
A master plate with 10× concentrated solution of the compound stock solutions diluted in water plus 0.025% Tween® 20 was prepared. The concentration of DMSO (from the stock of compound of Formula (a)) and Tween® 20 was kept constant in all cells of the master plate. 10 μl was transferred from the master plate to a 96well test plate. The nutrient broth containing the fungal spores/mycelia fragments was then added to the test plate to give an end concentration of 1× for the tested compounds (as outlined in Table 8). The test plates were incubated in the dark at 24 °C and 96% rh. […]
Cercospora arachidicola (EPPO Code: MYCOAR)
Conidia of the fungus from cryogenic storage were directly mixed into nutrient broth (PDB: potato dextrose broth).

Question: How did the “control of fungal growth (% reduction of growth in the test well as compared to untreated check)” value (plate column (2), highest malonomicin concentration, lines A-G with compound of Formula I(a) dilution series) turn out when `NC[C@@H]1NC(=O)C(C(=O)CC(NC(=O)[C@@H](N)CO)(C(=O)O)C(=O)O)=C1O` [malonomicin, {[(2S)-2-amino-3-hydroxypropanoyl]amino}{2-[(5S)-5-(aminomethyl)-4-hydroxy-2-oxo-2,5-dihydro-1H-pyrrol-3-yl]-2-oxoethyl}malonic acid] was run?
Answer: 100%

Question: What about the “control of fungal growth (% reduction of growth in the test well as compared to untreated check)” value (plate column (3) of malonomicin dilution series, lines A-G with compound of Formula I(a)) of the same compound?
Answer: 90%

Question: What about the “control of fungal growth (% reduction of growth in the test well as compared to untreated check)” value (plate column (4) of malonomicin dilution series, lines A-G with compound of Formula I(a)) of the same compound?
Answer: 70%

Question: What about the “control of fungal growth (% reduction of growth in the test well as compared to untreated check)” value (plate column (5) of malonomicin dilution series, lines A-G with compound of Formula I(a)) of the same compound?
Answer: 70%

Question: And the “control of fungal growth (% reduction of growth in the test well as compared to untreated check)” value (plate column (6) of malonomicin dilution series, lines A-G with compound of Formula I(a))?
Answer: 50%

Question: And the “control of fungal growth (% reduction of growth in the test well as compared to untreated check)” value (plate column (7) of malonomicin dilution series, lines A-G with compound of Formula I(a))?
Answer: 50%

Question: And the “control of fungal growth (% reduction of growth in the test well as compared to untreated check)” value (plate column (8) of malonomicin dilution series, lines A-G with compound of Formula I(a))?
Answer: 20%

Question: And the “control of fungal growth (% reduction of growth in the test well as compared to untreated check)” value (plate column (9) of malonomicin dilution series, lines A-G with compound of Formula I(a))?
Answer: 20%

Question: What about the “control of fungal growth (% reduction of growth in the test well as compared to untreated check)” value (plate column (10) of malonomicin dilution series, lines A-G with compound of Formula I(a)) of the same compound?
Answer: 0%

Question: And the “control of fungal growth (% reduction of growth in the test well as compared to untreated check)” value (plate column (11), lowest malonomicin concentration, lines A-G with compound of Formula I(a))?
Answer: 0%
